The source of these data is PMC11078216, “Discovery of potent and selective activity-based probes (ABPs) for the deubiquitinating enzyme USP30” (RSC Chemical Biology, 2024).

In the test the target is T1, CTSZ (Homo sapiens, UniProt Q9UBR2).
T1 construct: endogenous in cells; host or cells: HEK293T
Description: ABPP chemical proteomics (LC-MS/MS) in HEK293T cells. The test is classed as cell-based. Here is the method:
To explore the selectivity of IMP-2587 and IMP-2586 across the whole proteome, we performed quantitative activity-based protein profiling (ABPP) in HEK293T cells following treatment with IMP-2587 or IMP-2586 (Fig. 3a). After ABP incubation, cells were lysed, and probe-labelled proteins were ligated to biotinylated capture reagents.[27] […] USP30 was outcompeted by corresponding parent inhibitors for each ABP (Fig. 5b and d and Tables S3 and S5, ESI ^†), confirming the high potency and rapid engagement of IMP-2587 and IMP-2586 in cells. […] DESI1 and DESI2 are small ubiquitin-related modifier (SUMO) proteases,[3,29–32] and IMP-2587 and IMP-2586 may offer a starting point for future development of DESI ABPs. […]
The cells were washed with PBS and lysed with lysis buffer (50 μL (1% (v/v) Triton X-100, 0.1% (w/v) sodium dodecyl sulfate (SDS), EDTA-free complete protease inhibitor cocktail (1×, Roche) in PBS on ice for 10 min. The lysates were scraped and transferred to corresponding Lo-Bind Eppendorfs. Each lysate was sonicated for 1 minute, and the samples centrifuges at 5,000 x g at 4 °C for 5 minutes to pellet insoluble cellular debris. The supernatant was collected, and protein concentration was determined using the DC Protein Assay (Bio-Rad) as per manufacturer’s instructions, and normalised to lowest concentrated sample (e.g. 1 mg/mL, using lysis buffer). […]

T1 sequence (Q9UBR2 62-303): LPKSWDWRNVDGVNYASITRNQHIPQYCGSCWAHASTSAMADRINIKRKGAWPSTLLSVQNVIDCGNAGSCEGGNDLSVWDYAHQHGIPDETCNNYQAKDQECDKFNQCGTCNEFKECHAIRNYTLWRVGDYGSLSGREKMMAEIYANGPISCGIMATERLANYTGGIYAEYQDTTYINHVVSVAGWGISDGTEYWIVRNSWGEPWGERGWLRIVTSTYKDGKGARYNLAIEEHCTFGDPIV

In the case of `C#Cc1cccc(-c2cc(NC(=O)CC3CCN(C#N)C3)on2)c1` (centres unmarked) [IMP-2587], the “Difference (log2 fold change of enrichment)” value (IMP-2587 labelling vs DMSO, 30 nM, 10 min, HEK293T (Table S2, Fig.5a)) turned out to be 2.29.
Regarding `N#CN1CC[C@H](CC(=O)Nc2cc(-c3cccc(Cl)c3)no2)C1` [compound 1, reference compound], the “Difference (log2 fold change of enrichment)” value (compound 1 out-competition with IMP-2587 labelling, HEK293T (Table S3, Fig.5b)) is -2.01.
